Data published in PubChem BioAssay (NCI).
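Compound exposure: 48 hours, 5 concentrations, 96-well plates. At the TGI there is no net growth.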

How the values were obtained:
Test in all cases: NCI-60 cell line screen, 48 h
ACHN renal = tested on: ACHN renal
SW-620 colon = tested on: SW-620 colon
SK-MEL-5 melanoma = tested on: SK-MEL-5 melanoma
HOP-62 NSCLC = tested on: HOP-62 NSCLC
A549 NSCLC = tested on: A549 NSCLC
CCRF-CEM leukemia = tested on: CCRF-CEM leukemia
SNB-19 CNS = tested on: SNB-19 CNS
SF-295 CNS = tested on: SF-295 CNS
A498 renal = tested on: A498 renal
HCT-15 colon = tested on: HCT-15 colon
SK-OV-3 ovarian = tested on: SK-OV-3 ovarian
DLD-1 colon = tested on: DLD-1 colon
KM12 colon = tested on: KM12 colon
SN12C renal = tested on: SN12C renal
DMS 114 small cell lung = tested on: DMS 114 small cell lung
UACC-62 melanoma = tested on: UACC-62 melanoma
RXF-631 renal = tested on: RXF-631 renal
RPMI-8226 leukemia = tested on: RPMI-8226 leukemia
SF-539 CNS = tested on: SF-539 CNS
786-0 renal = tested on: 786-0 renal
SK-MEL-2 melanoma = tested on: SK-MEL-2 melanoma
K-562 leukemia = tested on: K-562 leukemia
UO-31 renal = tested on: UO-31 renal
HOP-18 NSCLC = tested on: HOP-18 NSCLC
IGROV1 ovarian = tested on: IGROV1 ovarian
HCT-116 colon = tested on: HCT-116 colon
KM20L2 colon = tested on: KM20L2 colon
OVCAR-5 ovarian = tested on: OVCAR-5 ovarian
COLO 205 colon = tested on: COLO 205 colon
OVCAR-4 ovarian = tested on: OVCAR-4 ovarian
OVCAR-8 ovarian = tested on: OVCAR-8 ovarian
NCI-H460 lung = tested on: NCI-H460 lung
OVCAR-3 ovarian = tested on: OVCAR-3 ovarian
LOX IMVI melanoma = tested on: LOX IMVI melanoma
MOLT-4 leukemia = tested on: MOLT-4 leukemia
EKVX NSCLC = tested on: EKVX NSCLC
SNB-75 CNS = tested on: SNB-75 CNS
NCI-H522 lung = tested on: NCI-H522 lung
RXF 393 renal = tested on: RXF 393 renal
SF-268 CNS = tested on: SF-268 CNS
SNB-78 CNS = tested on: SNB-78 CNS
M19-MEL melanoma = tested on: M19-MEL melanoma
HL-60(TB) leukemia = tested on: HL-60(TB) leukemia
NCI-H226 lung = tested on: NCI-H226 lung
HT29 colon = tested on: HT29 colon
TK-10 renal = tested on: TK-10 renal
HOP-92 NSCLC = tested on: HOP-92 NSCLC
SK-MEL-28 melanoma = tested on: SK-MEL-28 melanoma
XF 498 CNS = tested on: XF 498 CNS
LXFL 529 NSCLC = tested on: LXFL 529 NSCLC
MALME-3M melanoma = tested on: MALME-3M melanoma
NCI-H23 lung = tested on: NCI-H23 lung
M14 melanoma = tested on: M14 melanoma
UACC-257 melanoma = tested on: UACC-257 melanoma
HCC-2998 colon = tested on: HCC-2998 colon
U251 CNS = tested on: U251 CNS
DMS 273 small cell lung = tested on: DMS 273 small cell lung
CAKI-1 renal = tested on: CAKI-1 renal
SR leukemia = tested on: SR leukemia

Measured: TGI

N#CC(C(=N/O)/C(=N\O)C(C#N)c1ccccc1)c1ccccc1 (stereo unspecified)
not listed: DMS 273 small cell lung | CAKI-1 renal | SR leukemia
> 100 µM: all other assays above

O=C1NC2C3CC(OCc4ccccc4)(OCc4ccccc4)C2OC3O1 (stereo unspecified)
not listed: ACHN renal | SNB-19 CNS | RXF-631 renal | KM20L2 colon | OVCAR-4 ovarian | OVCAR-8 ovarian | NCI-H460 lung | EKVX NSCLC | NCI-H522 lung | RXF 393 renal | SNB-78 CNS | TK-10 renal | LXFL 529 NSCLC | U251 CNS | SR leukemia
> 50 µM: all other assays above

O=C1C(Cl)=C(Cl)C(=O)N1c1cccc(C(F)(F)F)c1
> 85.3 µM: CCRF-CEM leukemia
98 µM: CAKI-1 renal
26.4 µM: NCI-H522 lung
> 86.6 µM: MOLT-4 leukemia
70 µM: RXF 393 renal
> 100 µM: all other assays above

CN(c1ccccc1)c1nc(=[N+]2CCCC2)ss1
8.85 µM: RXF 393 renal
not listed: HOP-62 NSCLC | SF-295 CNS | DLD-1 colon | SF-539 CNS | OVCAR-5 ovarian | LOX IMVI melanoma | NCI-H522 lung | M19-MEL melanoma | HT29 colon | HOP-92 NSCLC | XF 498 CNS | NCI-H23 lung
> 100 µM: all other assays above
